Activity calls are given as the source filed them. A value given as a limit tells only on which side of the number the result lay.

Assay [1] is described as follows: luciferase reporter signal suppression in cells – H4 neuroglioma cells, luminescence, dose response (AID 1990). The assay is classed as functional, cell-based.
Assay [2] deals with T1, Replicative DNA helicase DnaB (Mycobacterium tuberculosis, UniProt P9WMR3).
T1 sequence (P9WMR3 whole entry): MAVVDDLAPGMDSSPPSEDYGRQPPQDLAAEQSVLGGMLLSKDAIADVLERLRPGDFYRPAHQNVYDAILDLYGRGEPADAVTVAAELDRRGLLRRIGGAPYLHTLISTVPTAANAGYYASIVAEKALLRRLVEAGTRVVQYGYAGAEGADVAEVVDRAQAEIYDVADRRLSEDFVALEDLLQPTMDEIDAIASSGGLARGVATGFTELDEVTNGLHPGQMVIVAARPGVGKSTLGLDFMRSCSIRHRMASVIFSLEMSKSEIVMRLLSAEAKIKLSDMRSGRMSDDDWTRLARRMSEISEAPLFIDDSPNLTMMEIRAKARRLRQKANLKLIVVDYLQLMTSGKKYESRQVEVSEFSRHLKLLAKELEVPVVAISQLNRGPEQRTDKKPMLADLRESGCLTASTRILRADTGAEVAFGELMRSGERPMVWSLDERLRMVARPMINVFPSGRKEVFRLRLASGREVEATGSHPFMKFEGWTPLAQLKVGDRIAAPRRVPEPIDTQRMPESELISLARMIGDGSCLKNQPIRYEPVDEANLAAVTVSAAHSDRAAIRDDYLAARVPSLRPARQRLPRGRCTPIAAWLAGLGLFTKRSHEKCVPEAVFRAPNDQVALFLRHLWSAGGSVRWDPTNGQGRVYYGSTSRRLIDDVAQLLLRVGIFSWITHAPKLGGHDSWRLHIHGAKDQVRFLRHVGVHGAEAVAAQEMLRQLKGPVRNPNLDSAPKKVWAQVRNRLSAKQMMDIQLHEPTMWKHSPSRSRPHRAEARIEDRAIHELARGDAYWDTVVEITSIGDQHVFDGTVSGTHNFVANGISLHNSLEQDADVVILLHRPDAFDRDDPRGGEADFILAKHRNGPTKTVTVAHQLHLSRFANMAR
The assay is described as follows: DnaB intein splicing inhibitors, dose response, biochemical, cell-free fluorescence (AID 449749). It counts as functional.

The target in the next assay is SUMO-activating enzyme (Homo sapiens, UniProt Q9UBT2). The assay is described as follows: blockers of UBC9-mediated SUMO conjugation – biochemical, AlphaScreen, SUMOylation inhibitor project, confirmation (AID 2018). The assay is classed as functional. Background: Alpha assays give light when donor and acceptor beads are brought close together.
In assay [3] the target is Histone-lysine N-methyltransferase NSD2 (Homo sapiens, UniProt O96028). The assay is classed as biochemical.
Assay [4] has as its target Phosphorylase b kinase gamma catalytic chain, liver/testis isoform (Homo sapiens, UniProt P15735). It counts as functional.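 Further: PHKG2 measured as one member of a kinome-wide kinase panel.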
Assay [5] deals with Serine/threonine-protein kinase MRCK alpha (Homo sapiens, UniProt Q5VT25). The assay is classed as functional.
The target of assay [6] is Maternal embryonic leucine zipper kinase (Homo sapiens, UniProt Q14680). It counts as functional.
Assay [7] has as its target Serine/threonine-protein kinase Nek4 (Homo sapiens, UniProt P51957). It counts as functional.
The target of assay [8] is Tyrosine-protein kinase BTK (Homo sapiens, UniProt Q06187). It counts as functional.
Assay [9] deals with Glycogen synthase kinase-3 alpha (Homo sapiens, UniProt P49840). It counts as functional.
For assay [10], the target named is 5'-AMP-activated protein kinase catalytic subunit alpha-1 (Homo sapiens, UniProt Q13131). It counts as functional.
Assay [11] concerns the target 3-phosphoinositide-dependent protein kinase 1 (Homo sapiens, UniProt O15530). The assay is classed as functional.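 Further: value comes from the Navigating the Kinome panel, PDPK1 member.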
For assay [12], the target named is Serine/threonine-protein kinase PLK1 (Homo sapiens, UniProt P53350). It counts as functional.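 Further: PLK1 measured as one member of a kinome-wide profiling panel.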
For assay [13], the target named is Tyrosine-protein kinase SYK (Homo sapiens, UniProt P43405). The assay is classed as functional.
Assay [14] deals with Cyclin-dependent kinase 7 (Homo sapiens, UniProt P50613). The assay is classed as functional.
The target of assay [15] is Protein kinase C gamma type (Homo sapiens, UniProt P05129). It counts as functional.
The next assay addresses Aurora kinase B (Homo sapiens, UniProt Q96GD4). It counts as functional.
The target of assay [16] is RAC-gamma serine/threonine-protein kinase (Homo sapiens, UniProt Q9Y243). The assay is classed as functional.
In a further assay the target is Insulin receptor (Homo sapiens, UniProt P06213). The assay is classed as functional.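 Further: insulin receptor kinase tested as one member of a kinome-wide kinase panel.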
In assay [17] the target is cAMP-dependent protein kinase catalytic subunit PRKX (Homo sapiens, UniProt P51817). The assay is classed as functional.
Assay [18] has as its target Cyclin-dependent kinase 5 (Homo sapiens, UniProt Q00535). The assay is classed as functional.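 Further: CDK5 measured as one member of a kinase profiling panel.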
For assay [19], the target named is Hepatocyte growth factor receptor (Homo sapiens, UniProt P08581). The assay is classed as functional.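 Further: kinase panel profiling across the kinome, with MET as the panel member.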
Assay [20] deals with Protein kinase C zeta type (Homo sapiens, UniProt Q05513). The assay is classed as functional.
Assay [21] deals with Homeodomain-interacting protein kinase 4 (Homo sapiens, UniProt Q8NE63). The assay is classed as functional.
In assay [22] the target is Calcium/calmodulin-dependent protein kinase type 1 (Homo sapiens, UniProt Q14012). It counts as functional.
A further assay addresses Activated CDC42 kinase 1 (Homo sapiens, UniProt Q07912). The assay can be described thus: Navigating the Kinome. Panel member name: ACK1. The assay is classed as functional.
Assay [23] has as its target RAC-alpha serine/threonine-protein kinase (Homo sapiens, UniProt P31749). It counts as functional.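 Further: AKT1 affinity measured as one member of a kinome-wide kinase profiling panel.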
Assay [24] has as its target Protein kinase C delta type (Homo sapiens, UniProt Q05655). It counts as functional.
Assay [25] concerns the target MAP kinase-activated protein kinase 3 (Homo sapiens, UniProt Q16644). It counts as functional.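 Further: value comes from a kinome-wide profiling panel in which MAPKAPK3 is one of the panel members.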
Assay [26] deals with Tyrosine-protein kinase Blk (Homo sapiens, UniProt P51451). The assay is classed as functional.
Assay [27] concerns the target Lymphokine-activated killer T-cell-originated protein kinase (Homo sapiens, UniProt Q96KB5). It counts as functional.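 Further: value comes from a kinase panel screen in which TOPK was one of the panel members.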
Assay [28] addresses Tyrosine-protein kinase Fer (Homo sapiens, UniProt P16591). The assay is classed as functional.
The subject of the next assay is A-375. The assay can be described thus: MITF: Counter assay: A375 proliferation Measured in Cell-Based System Using Plate Reader - 2084-03_Inhibitor_Dose_DryPowder_Activity. [Related pubchem assays (depositor defined):AID488944]. As to conditions: Homo sapiens. It counts as functional.
A short description of assay [29]: Trypanosoma cruzi growth suppression in host cells – NIH3T3 host cells, beta-gal luminescence, confirmation (AID 2044).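 Further: intracellular parasites grown in NIH/3T3 mouse fibroblasts as host cells; luminescent beta-galactosidase reporter signal from transgenic T. cruzi replicating inside host cells; inhibitors lower the luminescence signal.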 It counts as functional, cell-based.

Chain of Serine/threonine-protein kinase MRCK alpha (Q5VT25 whole entry): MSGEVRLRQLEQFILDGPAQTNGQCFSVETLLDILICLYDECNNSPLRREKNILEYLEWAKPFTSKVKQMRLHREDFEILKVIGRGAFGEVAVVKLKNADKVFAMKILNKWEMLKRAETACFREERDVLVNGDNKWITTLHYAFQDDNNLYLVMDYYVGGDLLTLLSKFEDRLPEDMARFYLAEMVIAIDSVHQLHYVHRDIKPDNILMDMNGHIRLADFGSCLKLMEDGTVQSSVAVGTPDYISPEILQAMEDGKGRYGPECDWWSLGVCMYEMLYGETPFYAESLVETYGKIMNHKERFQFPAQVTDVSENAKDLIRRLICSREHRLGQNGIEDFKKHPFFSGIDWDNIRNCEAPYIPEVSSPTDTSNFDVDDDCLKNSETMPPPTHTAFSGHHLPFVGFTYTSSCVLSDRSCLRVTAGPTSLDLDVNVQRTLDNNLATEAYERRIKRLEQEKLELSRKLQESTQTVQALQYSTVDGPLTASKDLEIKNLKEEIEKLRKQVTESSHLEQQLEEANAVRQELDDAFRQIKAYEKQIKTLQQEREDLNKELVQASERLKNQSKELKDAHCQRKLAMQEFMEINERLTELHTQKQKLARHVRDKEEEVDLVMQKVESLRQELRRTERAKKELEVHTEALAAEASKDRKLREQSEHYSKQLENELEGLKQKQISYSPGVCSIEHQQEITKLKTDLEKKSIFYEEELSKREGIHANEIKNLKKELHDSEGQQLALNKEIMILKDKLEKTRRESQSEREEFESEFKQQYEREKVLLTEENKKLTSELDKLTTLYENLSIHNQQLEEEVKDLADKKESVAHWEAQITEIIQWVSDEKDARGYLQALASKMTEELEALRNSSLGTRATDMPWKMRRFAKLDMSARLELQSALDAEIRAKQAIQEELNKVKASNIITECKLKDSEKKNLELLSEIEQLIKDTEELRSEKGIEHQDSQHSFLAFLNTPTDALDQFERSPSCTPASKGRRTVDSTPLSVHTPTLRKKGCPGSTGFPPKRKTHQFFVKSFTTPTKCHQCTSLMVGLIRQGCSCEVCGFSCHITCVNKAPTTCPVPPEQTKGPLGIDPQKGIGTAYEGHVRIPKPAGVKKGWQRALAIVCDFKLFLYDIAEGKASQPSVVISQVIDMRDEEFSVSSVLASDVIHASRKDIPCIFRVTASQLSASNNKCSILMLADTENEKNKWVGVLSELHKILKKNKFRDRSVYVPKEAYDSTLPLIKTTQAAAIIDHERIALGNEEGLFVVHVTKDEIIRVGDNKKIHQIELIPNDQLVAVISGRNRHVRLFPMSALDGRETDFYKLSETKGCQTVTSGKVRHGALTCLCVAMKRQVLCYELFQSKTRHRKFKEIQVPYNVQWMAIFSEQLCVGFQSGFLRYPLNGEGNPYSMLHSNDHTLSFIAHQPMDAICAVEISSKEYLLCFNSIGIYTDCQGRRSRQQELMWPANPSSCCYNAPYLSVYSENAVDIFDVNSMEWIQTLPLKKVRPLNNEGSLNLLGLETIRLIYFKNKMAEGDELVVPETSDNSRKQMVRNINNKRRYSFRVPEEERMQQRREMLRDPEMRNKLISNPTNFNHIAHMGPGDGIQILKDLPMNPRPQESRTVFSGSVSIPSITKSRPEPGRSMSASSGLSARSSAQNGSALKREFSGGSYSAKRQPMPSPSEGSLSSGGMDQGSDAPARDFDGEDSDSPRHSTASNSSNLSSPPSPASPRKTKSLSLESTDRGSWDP
Chain of RAC-alpha serine/threonine-protein kinase (P31749 whole entry): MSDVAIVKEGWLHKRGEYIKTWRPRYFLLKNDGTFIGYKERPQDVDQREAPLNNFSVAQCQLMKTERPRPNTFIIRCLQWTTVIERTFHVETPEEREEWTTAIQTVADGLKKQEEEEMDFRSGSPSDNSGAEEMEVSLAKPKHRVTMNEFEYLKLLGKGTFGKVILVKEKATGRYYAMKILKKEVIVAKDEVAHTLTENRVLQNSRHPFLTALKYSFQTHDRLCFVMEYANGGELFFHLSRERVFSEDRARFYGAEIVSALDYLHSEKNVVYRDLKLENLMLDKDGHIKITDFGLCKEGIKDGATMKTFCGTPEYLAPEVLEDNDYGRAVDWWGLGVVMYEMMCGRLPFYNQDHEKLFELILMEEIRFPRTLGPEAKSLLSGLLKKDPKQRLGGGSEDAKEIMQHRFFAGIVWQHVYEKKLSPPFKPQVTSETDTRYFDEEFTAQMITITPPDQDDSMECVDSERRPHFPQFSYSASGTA
Chain of Tyrosine-protein kinase Fer (P16591 whole entry): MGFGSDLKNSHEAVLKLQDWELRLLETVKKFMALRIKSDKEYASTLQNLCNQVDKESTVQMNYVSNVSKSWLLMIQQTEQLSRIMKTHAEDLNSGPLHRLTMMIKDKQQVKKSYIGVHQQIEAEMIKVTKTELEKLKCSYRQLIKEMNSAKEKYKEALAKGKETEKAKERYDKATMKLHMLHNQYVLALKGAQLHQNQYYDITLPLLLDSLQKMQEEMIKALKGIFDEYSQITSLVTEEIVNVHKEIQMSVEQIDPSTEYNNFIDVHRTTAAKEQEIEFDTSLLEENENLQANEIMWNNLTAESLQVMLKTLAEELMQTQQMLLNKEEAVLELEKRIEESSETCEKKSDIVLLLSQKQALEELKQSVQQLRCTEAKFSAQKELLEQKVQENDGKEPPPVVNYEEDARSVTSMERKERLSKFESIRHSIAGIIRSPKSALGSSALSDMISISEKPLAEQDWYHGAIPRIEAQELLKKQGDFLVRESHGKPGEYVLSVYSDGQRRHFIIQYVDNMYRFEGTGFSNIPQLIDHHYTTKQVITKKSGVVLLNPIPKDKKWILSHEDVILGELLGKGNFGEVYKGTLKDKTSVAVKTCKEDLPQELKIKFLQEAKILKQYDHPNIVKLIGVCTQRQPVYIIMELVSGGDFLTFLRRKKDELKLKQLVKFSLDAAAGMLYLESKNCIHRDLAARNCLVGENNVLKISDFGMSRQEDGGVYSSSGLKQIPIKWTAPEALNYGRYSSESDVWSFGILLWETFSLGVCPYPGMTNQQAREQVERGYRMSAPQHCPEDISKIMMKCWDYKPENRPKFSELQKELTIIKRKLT
Chain of MAP kinase-activated protein kinase 3 (Q16644 whole entry): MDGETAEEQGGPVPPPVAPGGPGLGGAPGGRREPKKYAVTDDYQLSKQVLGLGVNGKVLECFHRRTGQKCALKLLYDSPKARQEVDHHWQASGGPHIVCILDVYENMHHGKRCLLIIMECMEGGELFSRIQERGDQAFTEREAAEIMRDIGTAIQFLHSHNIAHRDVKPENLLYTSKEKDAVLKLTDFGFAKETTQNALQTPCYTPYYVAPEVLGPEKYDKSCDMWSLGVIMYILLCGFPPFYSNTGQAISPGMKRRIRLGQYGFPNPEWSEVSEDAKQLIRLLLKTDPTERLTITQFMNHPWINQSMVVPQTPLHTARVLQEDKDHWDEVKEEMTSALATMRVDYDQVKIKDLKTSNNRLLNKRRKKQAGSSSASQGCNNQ
Chain of Tyrosine-protein kinase BTK (Q06187 whole entry): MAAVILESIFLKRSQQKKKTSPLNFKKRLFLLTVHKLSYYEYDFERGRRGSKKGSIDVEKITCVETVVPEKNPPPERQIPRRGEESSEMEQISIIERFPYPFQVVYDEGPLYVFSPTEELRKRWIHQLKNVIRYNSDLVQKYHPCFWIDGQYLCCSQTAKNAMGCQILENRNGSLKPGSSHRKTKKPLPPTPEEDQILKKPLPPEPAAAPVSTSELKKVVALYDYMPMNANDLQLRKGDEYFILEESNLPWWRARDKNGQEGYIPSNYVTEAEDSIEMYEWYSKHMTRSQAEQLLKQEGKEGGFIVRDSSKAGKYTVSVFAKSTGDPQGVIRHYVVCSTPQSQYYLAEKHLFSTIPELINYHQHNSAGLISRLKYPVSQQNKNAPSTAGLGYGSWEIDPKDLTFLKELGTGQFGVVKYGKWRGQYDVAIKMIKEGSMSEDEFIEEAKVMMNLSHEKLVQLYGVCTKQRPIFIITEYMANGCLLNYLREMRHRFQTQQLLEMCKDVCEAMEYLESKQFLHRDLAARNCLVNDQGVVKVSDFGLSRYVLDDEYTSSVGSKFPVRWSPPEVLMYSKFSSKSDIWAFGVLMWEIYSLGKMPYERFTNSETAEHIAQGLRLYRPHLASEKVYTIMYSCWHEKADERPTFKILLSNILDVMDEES
Chain of Homeodomain-interacting protein kinase 4 (Q8NE63 whole entry): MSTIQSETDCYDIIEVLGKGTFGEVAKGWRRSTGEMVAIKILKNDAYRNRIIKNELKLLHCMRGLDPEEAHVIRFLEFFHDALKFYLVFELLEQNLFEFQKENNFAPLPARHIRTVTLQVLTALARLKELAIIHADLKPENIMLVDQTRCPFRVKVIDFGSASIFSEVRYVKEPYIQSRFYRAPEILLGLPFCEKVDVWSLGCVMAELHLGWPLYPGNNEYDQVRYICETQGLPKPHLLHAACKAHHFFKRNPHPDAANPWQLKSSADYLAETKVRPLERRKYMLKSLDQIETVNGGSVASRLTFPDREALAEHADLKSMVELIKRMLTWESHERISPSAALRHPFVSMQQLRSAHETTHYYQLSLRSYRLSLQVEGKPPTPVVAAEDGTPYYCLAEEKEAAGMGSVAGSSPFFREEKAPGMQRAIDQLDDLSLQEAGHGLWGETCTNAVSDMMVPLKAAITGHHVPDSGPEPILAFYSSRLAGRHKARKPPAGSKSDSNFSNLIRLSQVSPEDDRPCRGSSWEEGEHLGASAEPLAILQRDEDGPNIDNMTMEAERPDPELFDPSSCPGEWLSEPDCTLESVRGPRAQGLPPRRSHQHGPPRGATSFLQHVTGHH
Chain of Cyclin-dependent kinase 7 (P50613 whole entry): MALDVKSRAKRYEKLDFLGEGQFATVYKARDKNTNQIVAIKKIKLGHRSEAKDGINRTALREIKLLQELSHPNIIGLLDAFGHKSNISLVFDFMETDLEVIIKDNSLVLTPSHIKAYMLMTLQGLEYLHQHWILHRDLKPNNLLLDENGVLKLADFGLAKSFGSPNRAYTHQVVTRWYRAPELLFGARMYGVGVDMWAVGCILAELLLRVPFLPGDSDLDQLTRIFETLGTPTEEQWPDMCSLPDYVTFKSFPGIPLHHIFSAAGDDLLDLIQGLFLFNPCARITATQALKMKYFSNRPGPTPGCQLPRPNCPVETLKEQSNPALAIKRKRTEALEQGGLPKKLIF

For the molecule `NS(=O)(=O)c1ccc(NC2=CC(=O)C(=O)c3ccccc32)cc1`, in [1], the EC50 – broadly, the midpoint of the concentration-response curve – is > 120 µM (not active). Also, the AC50 (usually the concentration giving half of the maximal activity seen) in assay [2] was 1.84 µM (active); in [3], 3.1 µM (active). The IC50 (usually the midpoint of a concentration-inhibition curve) on SUMO-activating enzyme is 2.11 µM (active).

With `Clc1cc(-c2c[nH]c3ncccc23)nc(NC2CCCCC2)n1`, the Ki (commonly a measure of affinity in units of concentration, obtained from inhibition or displacement) in assay [4] is > 5.01 µM (inactive); in assay [5], 0.126 µM (active); in assay [6], 0.316 µM (active); in assay [7], > 6.31 µM (inactive); in assay [8], > 3.98 µM (inactive); in assay [9], 0.794 µM (active). Further, the Ki in [10] was > 2 µM (inactive); in [11], > 3.98 µM (inactive); in assay [12] it was 0.501 µM (active); in assay [13], > 1.58 µM (inactive); in [14] it was > 6.31 µM (inactive); in assay [15] it was 1 µM (active). The Ki on Aurora kinase B was > 6.31 µM (inactive); in assay [16] it was > 10 µM (inactive); at Insulin receptor it was 3.16 µM (active); in [17], > 1.26 µM (inactive); in assay [18], 0.126 µM (active); in [19] it was > 3.16 µM (inactive). For the same molecule, the Ki was > 7.94 µM (inactive) in [20]; 1.26 µM (active) in assay [21]; > 6.31 µM (inactive) in assay [22]; > 3.98 µM (inactive) on Activated CDC42 kinase 1; > 7.94 µM (inactive) in assay [23]; > 7.94 µM (inactive) in [24]. Also, the Ki in [25] is > 10 µM (inactive); in assay [26], > 1.58 µM (inactive); in [27], > 10 µM (inactive); in [28] it was 0.398 µM (active).

On to `CCC(=O)NC(c1ccccc1OC)c1ccc2cccnc2c1O` (centres undefined), for which, in the assay on A-375, the AC50 is 35 µM (active). In assay [29], the EC50 was 0.951 µM (active).

The record behind these values is ChEMBL document CHEMBL1201862, “PubChem BioAssay data set” (2004).
